This note sets out measurements from US20260297060A1, “COMPOUNDS FOR THE DEGRADATION OF MUTANT BRAF” (C4 THERAPEUTICS, INC., priority 2023, published 2026).

In this assay the test system is A375 human melanoma xenografts. Nature of the assay: Example 7 efficacy study in A375 human melanoma xenografts (tumor volume, T/C, TGI). Format: in vivo, BALB/c nude mice. As to conditions: 10 mg/kg, p.o.; for T/C / TGI / Tumor Size on PG-D14 (mean ± SEM): PG-D14. As to the method:
For efficacy study, agents were tested in the A375 human melanoma xenografts. Compound 118, Compound 156, and Compound 180 were administered to BALB/c nude mice bearing A375 xenografts from day 0 and dosed p.o. twice per day (BID). Compound 141 was administered from day 0 and dosed p.o. twice per day (BID) or dosed p.o. daily (QD) from day 1. Compound 141, Compound 118, Compound 156, and Compound 180 were dosed at 10 mg/kg for 14 days. The known BRAF inhibitor Dabrafenib was used as a positive control. Dabrafenib was administered from day 1 and dosed p.o. daily (QD) for 14 days and dosed at 100 mg/kg.
The A375 tumor cells were maintained in vitro in DMEM medium supplemented with […] and 1% Penicillin-Streptomycin at 37° C. in an atmosphere of 5% CO2 in air. The tumor cells were routinely subcultured twice weekly. The cells growing in an exponential growth phase were harvested and counted for tumor inoculation.
Each mouse was inoculated subcutaneously at the right flank with A375 tumor cells (5×10^6) in 0.2 mL of PBS with Matrigel (PBS: Matrigel=1:1) supplemented for tumor development. Animals were grouped when the average tumor volume reached 246 mm^3 for efficacy study and 390 mm^3 for PKPD study on day 17 after tumor inoculation. The test articles administration and the animal numbers in each group are shown in the above experimental tables.
Prior to the onset of drug treatment, mice were measured for tumor size in two dimensions using a caliper, and the tumor volume (mm^3) was calculated using formula V=0.5 a×b^2 where a and b are the long and short diameters of the tumor in mm, respectively. Mice were randomized into different treatment groups based on the tumor volume.
The major endpoint was to see if the tumor growth could be delayed or mice could be cured. The tumor size was then used for calculations of T/C value. The T/C value (in percent) is an indication of antitumor effectiveness; T and C are the mean volumes of the treated and control groups, respectively on specified day.
TGI was calculated for each group using the formula: TGI (%)=[1−(Ti−T0)/(Ci−C0)]×100; Ti is the average tumor volume of a treatment group on a given day, T0 is the average tumor volume of the treatment group on the day of treatment start, Ci is the average tumor volume of the vehicle control group on the same day with Ti, and C0 is the average tumor volume of the vehicle group on the day of treatment start.

Usually T/C stands for the result in the treated group divided by that in the control group, in per cent. Turning to `CCN(C)S(=O)(=O)Nc1ccc(F)c(Oc2ccc3ncc(C4CC5(CCN(C6CCC(c7cc8c(cc7F)c(N7CCC(=O)NC7=O)nn8C)CC6)CC5)C4)nc3c2)c1C#N` (single isomer, unassigned) [Compound 180, 7-[2-cyano-3-[[ethyl(methyl)sulfamoyl]amino]-6-fluoro-phenoxy]-2-[7-[4-[3-(2,4-dioxohexahydropyrimidin-1-yl)-5-fluoro-1-methyl-indazol-6-yl]cyclohexyl]-7-azaspiro[3.5]nonan-2-yl]quinoxaline], the T/C (BID × 14 days) stood at 7.2%. For the same compound, the TGI (BID × 14 days) is 113.9%. Further, the “Tumor Size on PG-D14 (mean ± SEM)” value (BID × 14 days) was 96 ± 11 mm^3. For the same compound, the “Tumor Volume (mean ± SEM)” value reads like this: (BID × 14 days, day 0) 247 ± 16 mm^3; (BID × 14 days, day 3) 319 ± 22 mm^3; (BID × 14 days, day 7) 222 ± 18 mm^3; (BID × 14 days, day 10) 151 ± 16 mm^3; (BID × 14 days, day 14) 96 ± 11 mm^3.
As for `CCN(C)S(=O)(=O)Nc1ccc(F)c(Oc2ccc3ncn(C4CC5(CCN(C6CC7(C6)CN(c6cc8c(cc6F)c(N6CCC(=O)NC6=O)nn8C)C7)CC5)C4)c(=O)c3c2)c1C#N` (stereo not shown) [Compound 141, 6-[2-cyano-3-[[ethyl(methyl)sulfamoyl]amino]-6-fluoro-phenoxy]-3-[7-[2-[3-(2,4-dioxohexahydropyrimidin-1-yl)-5-fluoro-1-methyl-indazol-6-yl]-2-azaspiro[3.3]heptan-6-yl]-7-azaspiro[3.5]nonan-2-yl]-4-oxo-quinazoline], the T/C by setting is: (BID × 14 days) 2.4%; (QD × 14 days) 3.0%. Also, the TGI (BID × 14 days) is reported as 119.8% and the TGI (QD × 14 days) came out at 119.0%. The “Tumor Size on PG-D14 (mean ± SEM)” value reads like this: (BID × 14 days) 32 ± 4 mm^3; (QD × 14 days) 40 ± 6 mm^3. In addition, the “Tumor Volume (mean ± SEM)” value is listed as 246 ± 15 mm^3 (BID × 14 days, day 0); 181 ± 15 mm^3 (BID × 14 days, day 3); 109 ± 13 mm^3 (BID × 14 days, day 7); 59 ± 6 mm^3 (BID × 14 days, day 10); 32 ± 4 mm^3 (BID × 14 days, day 14); 246 ± 12 mm^3 (QD × 14 days, day 0). The “Tumor Volume (mean ± SEM)” value by setting is: (QD × 14 days, day 3) 275 ± 9 mm^3; (QD × 14 days, day 7) 138 ± 13 mm^3; (QD × 14 days, day 10) 81 ± 9 mm^3; (QD × 14 days, day 14) 40 ± 6 mm^3.
`CCN(C)S(=O)(=O)Nc1ccc(F)c(Oc2ccc3ncc(OCC4CCN(C5CCC(c6cc7c(cc6F)c(N6CCC(=O)NC6=O)nn7C)CC5)CC4)nc3c2)c1C#N` (single isomer, unassigned) [Compound 118, 7-[2-cyano-3-[[ethyl(methyl)sulfamoyl]amino]-6-fluoro-phenoxy]-2-[[1-[4-[3-(2,4-dioxohexahydropyrimidin-1-yl)-5-fluoro-1-methyl-indazol-6-yl]cyclohexyl]-4-piperidyl]methoxy]quinoxaline] gave a T/C (BID × 14 days) of 6.1%. The TGI (BID × 14 days) is 115.3%. For the same compound, the “Tumor Size on PG-D14 (mean ± SEM)” value (BID × 14 days) is 81 ± 8 mm^3. Also, the “Tumor Volume (mean ± SEM)” value came to 247 ± 14 mm^3 (BID × 14 days, day 0); 326 ± 20 mm^3 (BID × 14 days, day 3); 192 ± 20 mm^3 (BID × 14 days, day 7); 117 ± 13 mm^3 (BID × 14 days, day 10); 81 ± 8 mm^3 (BID × 14 days, day 14).
Under “BID × 14 days”, `CCN(C)S(=O)(=O)Nc1ccc(F)c(Oc2ccc3ncn(C4CC5(CCN(C6CCN(c7cc8c(cc7F)c(N7CCC(=O)NC7=O)nn8C)CC6)CC5)C4)c(=O)c3c2)c1C#N` [Compound 156, 6-[2-cyano-3-[[ethyl(methyl)sulfamoyl]amino]-6-fluoro-phenoxy]-3-[7-[1-[3-(2,4-dioxohexahydropyrimidin-1-yl)-5-fluoro-1-methyl-indazol-6-yl]-4-piperidyl]-7-azaspiro[3.5]nonan-2-yl]-4-oxo-quinazoline] came in with a T/C of 2.6%. Also, the TGI (BID × 14 days) was 119.6%. For the same compound, under “BID × 14 days”, the “Tumor Size on PG-D14 (mean ± SEM)” value worked out at 34 ± 5 mm^3. The “Tumor Volume (mean ± SEM)” value is 246 ± 13 mm^3 (BID × 14 days, day 0); 203 ± 16 mm^3 (BID × 14 days, day 3); 111 ± 4 mm^3 (BID × 14 days, day 7); 68 ± 3 mm^3 (BID × 14 days, day 10); 34 ± 5 mm^3 (BID × 14 days, day 14).
